Source: patent publication EP2266984A1, “Pyrido[2,3-d]pyrimidines as Wnt antagonists for treatment of cancer and arthritis” (Deutsches Krebsforschungszentrum Stiftung des öffentlichen …, priority 2009, dated 2010)

Legend:
[1] = system: HS68; experiment: Cell line specific cytotoxicity, count of Hoechst labeled nuclei, HS68 fibroblasts; assay type: cell-based, human; details: normal cells, at least 72 hr
Protocol: For examination of cell line-specific cytotoxicity, compounds were applied to human colorectal cancer cells (HCT116, denoted (1); SW480, denoted (2); Dld-1, denoted (3)) and human fibroblasts (HFF-1, denoted (4); HS-68, denoted (5)), cultured in Mc Coy's (1) and Dulbecco's Modified Eagles Medium ((2)-(5)), supplemented with 10% ((1)-(3)) and 20% ((4), (5)) fetal calf serum and 1% penicillin/streptomycin. Cells were grown in T75 flasks at 37 °C, 5% CO2 and trypsinized when 60-80% confluent by adding 2 ml of 0.25% Trypsin-EDTA solution. Cells were then re-suspended into culture medium yielding approx. 750 cells, suspended in 45 microl medium, were plated into each well of a black 384-well plate for fluorescence imaging experiments. […] Compound incubation was terminated by (a) fixation and (b) permeabilisation of cells, followed by (c) fluorescence labeling of cell nuclei for cytometric quantification or by immunocytochemistry for microscopic evaluation of cell morphology. The three steps were performed by replacing the solution of the previous step in each well of a 384-well plate by (a) 30 microl PBS (phosphate buffered saline) containing 5% PFA (paraformaldehyde), (b) 30 microl PBS containing 0.2% TritonX-100 and (c) 10 microl PBS containing Hoechst-33342 for cytometry or Hoechst-33342, FITC-(fluorescein isothiocyanate-)labeled alpha-tubulin antibodies and TRITC-(tetramethylrhodamine isothiocyanate-)labeled phalloidin for microscopy. Solutions were incubated for 15 (a,b) and 30 min (c) in the dark at room temperature. Cells were washed twice between each step with 30 microl PBS. The assay system was miniaturized and adapted to automated workflow using liquid-handling robotics.
Cell line-specific cytotoxicity was quantified by counting the number of Hoechst labeled nuclei per well of a 384-well plate using a plate cytometer. Data obtained with the cytometer was analysed using standard data analysis software.
Identified hits were further evaluated by visual inspection of fluorescence micrographs obtained from imaging using a conventional fluorescence microscope.

[2] = system: human colon carcinoma cells HCT116; experiment: Antiproliferative activity against HCT116, count of Hoechst labeled nuclei; assay type: cell-based; details: HCT116 colon carcinoma cells
Protocol: For examination of cell line-specific cytotoxicity, compounds were applied to human colorectal cancer cells (HCT116, denoted (1); SW480, denoted (2); Dld-1, denoted (3)) and human fibroblasts (HFF-1, denoted (4); HS-68, denoted (5)), cultured in Mc Coy's (1) and Dulbecco's Modified Eagles Medium ((2)-(5)), supplemented with 10% ((1)-(3)) and 20% ((4), (5)) fetal calf serum and 1% penicillin/streptomycin. Cells were grown in T75 flasks at 37 °C, 5% CO2 and trypsinized when 60-80% confluent by adding 2 ml of 0.25% Trypsin-EDTA solution. Cells were then re-suspended into culture medium yielding approx. 750 cells, suspended in 45 microl medium, were plated into each well of a black 384-well plate for fluorescence imaging experiments. 24 - 36 hr later 5 microl compound solution (100 microM compound dissolved in ultra pure water containing 1% DMSO), were added to achieve a final concentration of 10 microM and were incubated for at least 72 hr. Compound incubation was terminated by (a) fixation and (b) permeabilisation of cells, followed by (c) fluorescence labeling of cell nuclei for cytometric quantification or by immunocytochemistry for microscopic evaluation of cell morphology. The three steps were performed by replacing the solution of the previous step in each well of a 384-well plate by (a) 30 microl PBS (phosphate buffered saline) containing 5% PFA (paraformaldehyde), (b) 30 microl PBS containing 0.2% TritonX-100 and (c) 10 microl PBS containing Hoechst-33342 for cytometry or Hoechst-33342, FITC-(fluorescein isothiocyanate-)labeled alpha-tubulin antibodies and TRITC-(tetramethylrhodamine isothiocyanate-)labeled phalloidin for microscopy. Solutions were incubated for 15 (a,b) and 30 min (c) in the dark at room temperature. Cells were washed twice between each step with 30 microl PBS. The assay system was miniaturized and adapted to automated workflow using liquid-handling robotics.
Cell line-specific cytotoxicity was quantified by counting the number of Hoechst labeled nuclei per well of a 384-well plate using a plate cytometer. Data obtained with the cytometer was analysed using standard data analysis software. […]
The examination of the antiproliferative activity against human colon carcinoma cells HCT116 was carried out in analogy to example 203. […] Compounds of the present invention have potent antiproliferative acivity against human colon carcinoma cells as shown for HCT116 in Table 6.

[3] = system: Wnt signalling pathway; experiment: Wnt-sensitive reporter gene assay (6xTCF-luciferase, pTOP-FLASH) in Hek293T cells; assay type: cell-based; details: for Normalized Wnt pathway inhibitory activity: 24 h; for IC50: Homo sapiens, HEK-293T, 6xTCF-luciferase, 5nM - 100 microM, 24 h incubation, read-out: IC50 of the Wnt pathway inhibitory activity
Protocol: To screen for small-molecule modulators of the Wnt signalling pathway, a reporter gene based assay describing the modulation of the TCF4 transcription factor was used. More specifically 4000 Hek293T cells were seeded into 384 high density plates. 24h after seeding a Wnt-sensitive reporter (6xTCF-luciferase (Firefly) (pTOP-FLASH; "Armadillo coactivates transcription driven by the product of the Drosophila segment polarity gene dTCF", Cell, 1997, 88(6), pages 789-99)) and constitutively expressed control reporter (Renilla luciferase pCMV-RL) were transfected into Hek293T. Wnt signaling was stimulated by cotransfecting mouse Wnt1, mouse Frizzled 8 and human LRP6 according to "Casein kinase 1 gamma couples Wnt receptor activation to cytoplasmic signal transduction", Nature, 2005, 438(7069), pages 867-872. 24 h after pathway stimulation compounds were added at a concentration of 10 microM and allowed to incubate for 24 h. For the evaluation of the IC50 the compound was applied in increasing concentrations yielding final concentrations per well of 5nM - 100 microM.

## CCOC(=O)c1c(C)nc2c(c(N3CCN(C(c4ccc(F)cc4)c4ccc(F)cc4)CC3)nc(=O)n2-c2ccccc2)c1-c1ccccc1 [Example 157]
[1]; 0.005 microM
  Normalized cell count (HS68): 1
[1]; 0.015 microM
  Normalized cell count (HS68): 1.092
[1]; 0.046 microM
  Normalized cell count (HS68): 1.081
[1]; 0.137 microM
  Normalized cell count (HS68): 1.128
[1]; 0.412 microM
  Normalized cell count (HS68): 1.062
[1]; 1.235 microM
  Normalized cell count (HS68): 1.132
[1]; 3.704 microM
  Normalized cell count (HS68): 1.18
[1]; 11.111 microM
  Normalized cell count (HS68): 1.167
[1]; 33.333 microM
  Normalized cell count (HS68): 1.2661
[1]; 100.000 microM
  Normalized cell count (HS68): 1.294
[2]; 0.005 microM
  Normalized cell count (HCT 116): 1
[2]; 0.015 microM
  Normalized cell count (HCT 116): 1.101
[2]; 0.046 microM
  Normalized cell count (HCT 116): 1.031
[2]; 0.137 microM
  Normalized cell count (HCT 116): 1.151
[2]; 0.412 microM
  Normalized cell count (HCT 116): 1.072
[2]; 1.235 microM
  Normalized cell count (HCT 116): 0.9399
[2]; 3.704 microM
  Normalized cell count (HCT 116): 0.8282
[2]; 11.111 microM
  Normalized cell count (HCT 116): 0.7256
[2]; 33.333 microM
  Normalized cell count (HCT 116): 0.3684
[2]; 100.000 microM
  Normalized cell count (HCT 116): 0.2263
[3]; 0.005 microM
  Normalized Wnt pathway inhibitory activity: 0.9895
[3]; 0.015 microM
  Normalized Wnt pathway inhibitory activity: 1.0328
[3]; 0.137 microM
  Normalized Wnt pathway inhibitory activity: 0.6610
[3]; 0.412 microM
  Normalized Wnt pathway inhibitory activity: 1.2550
[3]; 1.235 microM
  Normalized Wnt pathway inhibitory activity: 0.6557
[3]; 3.704 microM
  Normalized Wnt pathway inhibitory activity: 0.3888
[3]; 11.111 microM
  Normalized Wnt pathway inhibitory activity: 0.3733
[3]; 33.333 microM
  Normalized Wnt pathway inhibitory activity: 0.1933
[3]; 100.000 microM
  Normalized Wnt pathway inhibitory activity: 0.1651
[3]
  IC50: 1900 ± 900 nM

## CCOC(=O)c1c(C)nc2c(c(N3CCN(Cc4ccccc4F)CC3)nc(=O)n2-c2ccccc2)c1-c1ccccc1 [Example 150]
[1]; 0.005 microM
  Normalized cell count (HS68): 1
[1]; 0.015 microM
  Normalized cell count (HS68): 1.018
[1]; 0.046 microM
  Normalized cell count (HS68): 1.012
[1]; 0.137 microM
  Normalized cell count (HS68): 0.9701
[1]; 0.412 microM
  Normalized cell count (HS68): 0.9865
[1]; 1.235 microM
  Normalized cell count (HS68): 0.9917
[1]; 3.704 microM
  Normalized cell count (HS68): 1.106
[1]; 11.111 microM
  Normalized cell count (HS68): 1.081
[1]; 33.333 microM
  Normalized cell count (HS68): 1.034
[1]; 100.000 microM
  Normalized cell count (HS68): 0.6334
[2]; 0.005 microM
  Normalized cell count (HCT 116): 1
[2]; 0.015 microM
  Normalized cell count (HCT 116): 1.076
[2]; 0.046 microM
  Normalized cell count (HCT 116): 1.153
[2]; 0.137 microM
  Normalized cell count (HCT 116): 1.2
[2]; 0.412 microM
  Normalized cell count (HCT 116): 1.087
[2]; 1.235 microM
  Normalized cell count (HCT 116): 1.105
[2]; 3.704 microM
  Normalized cell count (HCT 116): 0.8597
[2]; 11.111 microM
  Normalized cell count (HCT 116): 0.4595
[2]; 33.333 microM
  Normalized cell count (HCT 116): 0.1363
[2]; 100.000 microM
  Normalized cell count (HCT 116): 0.1263
[3]; 0.005 microM
  Normalized Wnt pathway inhibitory activity: 0.8990
[3]; 0.015 microM
  Normalized Wnt pathway inhibitory activity: 0.8480
[3]; 0.046 microM
  Normalized Wnt pathway inhibitory activity: 0.8763
[3]; 0.137 microM
  Normalized Wnt pathway inhibitory activity: 1.0310
[3]; 0.412 microM
  Normalized Wnt pathway inhibitory activity: 0.8660
[3]; 1.235 microM
  Normalized Wnt pathway inhibitory activity: 0.6448
[3]; 3.704 microM
  Normalized Wnt pathway inhibitory activity: 0.3170
[3]; 11.111 microM
  Normalized Wnt pathway inhibitory activity: 0.2795
[3]; 33.333 microM
  Normalized Wnt pathway inhibitory activity: 0.1573
[3]; 100.000 microM
  Normalized Wnt pathway inhibitory activity: 0.1708
[3]
  IC50: 1600 ± 600 nM
